Laboratory results as given in patent US10065963B2 (Incyte Corporation, priority 2015, dated 2018).
Counter-ions that a name gives are not always drawn. Like-named read-outs stand apart in the source and are kept apart here.

What was measured:
[1] = target: PI3Kδ (p110δ/p85α) Recombinant Human Protein (Homo sapiens (Human), UniProt O00329); test: PI3Kδ scintillation proximity assay; type: biochemical; conditions: 2 μM ATP, 20 μM PIP2
[2] = target: PI3Kγ (p110γ) Recombinant Human Protein (Homo sapiens (Human), UniProt P48736); test: PI3K-γ scintillation proximity assay; type: biochemical; conditions: 2 μM ATP, 20 μM PIP2
PI3Kγ (p110γ) Recombinant Human Protein, sequence (P48736 whole entry): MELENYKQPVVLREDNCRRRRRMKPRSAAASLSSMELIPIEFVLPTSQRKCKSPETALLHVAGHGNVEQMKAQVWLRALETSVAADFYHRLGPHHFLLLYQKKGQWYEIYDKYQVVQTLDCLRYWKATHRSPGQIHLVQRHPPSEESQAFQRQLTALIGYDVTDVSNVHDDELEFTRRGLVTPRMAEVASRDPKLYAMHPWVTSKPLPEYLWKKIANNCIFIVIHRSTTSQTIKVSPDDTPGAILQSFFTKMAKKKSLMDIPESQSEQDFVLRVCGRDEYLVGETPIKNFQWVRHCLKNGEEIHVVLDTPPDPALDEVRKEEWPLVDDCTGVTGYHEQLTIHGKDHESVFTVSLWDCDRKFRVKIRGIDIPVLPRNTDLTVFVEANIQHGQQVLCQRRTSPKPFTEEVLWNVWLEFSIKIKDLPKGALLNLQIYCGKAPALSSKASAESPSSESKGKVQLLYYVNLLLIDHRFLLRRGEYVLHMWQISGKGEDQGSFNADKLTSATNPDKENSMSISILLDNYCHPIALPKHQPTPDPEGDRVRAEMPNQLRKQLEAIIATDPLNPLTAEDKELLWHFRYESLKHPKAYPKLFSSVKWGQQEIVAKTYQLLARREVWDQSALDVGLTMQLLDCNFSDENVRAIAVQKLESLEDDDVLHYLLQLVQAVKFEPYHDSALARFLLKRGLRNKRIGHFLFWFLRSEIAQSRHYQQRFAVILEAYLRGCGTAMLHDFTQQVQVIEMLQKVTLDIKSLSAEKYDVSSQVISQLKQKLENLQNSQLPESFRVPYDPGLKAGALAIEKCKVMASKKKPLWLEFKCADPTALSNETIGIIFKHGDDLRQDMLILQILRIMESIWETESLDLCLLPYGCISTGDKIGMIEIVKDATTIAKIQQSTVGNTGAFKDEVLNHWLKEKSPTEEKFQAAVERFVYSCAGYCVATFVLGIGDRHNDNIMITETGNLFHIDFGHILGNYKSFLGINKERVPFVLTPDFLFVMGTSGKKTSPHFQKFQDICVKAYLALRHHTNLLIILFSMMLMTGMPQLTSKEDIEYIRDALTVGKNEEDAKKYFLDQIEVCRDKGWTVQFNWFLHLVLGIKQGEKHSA

[3] = test system: Phosphorylated Ribosomal Protein S6 (RPS6) in THP-1 cells; test: THP-1 RPS6 ELISA assay; type: cell-based, human; conditions: 10 nM MCP-1, read-out: PI3Kγ_THP1_RPS6_ELISA IC50
[4] = Homo sapiens, THP-1, THP-1 cells

PI3Kδ (p110δ/p85α) Recombinant Human Protein, sequence (O00329 whole entry): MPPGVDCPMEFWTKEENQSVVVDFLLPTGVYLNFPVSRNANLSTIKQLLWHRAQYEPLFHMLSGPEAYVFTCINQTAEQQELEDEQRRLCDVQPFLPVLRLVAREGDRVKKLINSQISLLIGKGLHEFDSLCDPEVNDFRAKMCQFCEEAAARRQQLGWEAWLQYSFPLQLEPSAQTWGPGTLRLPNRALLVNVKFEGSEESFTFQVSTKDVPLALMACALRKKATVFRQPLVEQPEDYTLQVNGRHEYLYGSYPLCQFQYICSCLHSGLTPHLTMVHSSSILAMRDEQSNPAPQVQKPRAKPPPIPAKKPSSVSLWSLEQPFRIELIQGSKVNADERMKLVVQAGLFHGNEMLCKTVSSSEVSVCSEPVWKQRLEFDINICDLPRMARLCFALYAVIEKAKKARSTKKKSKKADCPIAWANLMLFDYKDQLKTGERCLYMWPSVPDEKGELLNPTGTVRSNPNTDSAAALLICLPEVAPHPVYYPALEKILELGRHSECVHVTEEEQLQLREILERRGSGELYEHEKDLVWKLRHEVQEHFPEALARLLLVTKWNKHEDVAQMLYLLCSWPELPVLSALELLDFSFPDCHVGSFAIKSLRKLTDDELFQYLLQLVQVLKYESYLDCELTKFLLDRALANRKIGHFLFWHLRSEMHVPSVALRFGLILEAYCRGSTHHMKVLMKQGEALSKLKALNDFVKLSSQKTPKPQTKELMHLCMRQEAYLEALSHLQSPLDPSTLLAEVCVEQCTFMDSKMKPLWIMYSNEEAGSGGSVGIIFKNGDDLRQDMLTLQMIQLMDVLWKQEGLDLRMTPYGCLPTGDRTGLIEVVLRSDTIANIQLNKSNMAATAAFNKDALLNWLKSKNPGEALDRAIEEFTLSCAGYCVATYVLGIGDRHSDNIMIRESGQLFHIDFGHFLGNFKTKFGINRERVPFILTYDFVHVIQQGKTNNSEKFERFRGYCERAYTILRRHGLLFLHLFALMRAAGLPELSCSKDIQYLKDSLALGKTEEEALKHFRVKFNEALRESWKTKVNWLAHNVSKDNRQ
PI3Kδ (p110δ/p85α) Recombinant Human Protein, sequence (P27986 whole entry partner): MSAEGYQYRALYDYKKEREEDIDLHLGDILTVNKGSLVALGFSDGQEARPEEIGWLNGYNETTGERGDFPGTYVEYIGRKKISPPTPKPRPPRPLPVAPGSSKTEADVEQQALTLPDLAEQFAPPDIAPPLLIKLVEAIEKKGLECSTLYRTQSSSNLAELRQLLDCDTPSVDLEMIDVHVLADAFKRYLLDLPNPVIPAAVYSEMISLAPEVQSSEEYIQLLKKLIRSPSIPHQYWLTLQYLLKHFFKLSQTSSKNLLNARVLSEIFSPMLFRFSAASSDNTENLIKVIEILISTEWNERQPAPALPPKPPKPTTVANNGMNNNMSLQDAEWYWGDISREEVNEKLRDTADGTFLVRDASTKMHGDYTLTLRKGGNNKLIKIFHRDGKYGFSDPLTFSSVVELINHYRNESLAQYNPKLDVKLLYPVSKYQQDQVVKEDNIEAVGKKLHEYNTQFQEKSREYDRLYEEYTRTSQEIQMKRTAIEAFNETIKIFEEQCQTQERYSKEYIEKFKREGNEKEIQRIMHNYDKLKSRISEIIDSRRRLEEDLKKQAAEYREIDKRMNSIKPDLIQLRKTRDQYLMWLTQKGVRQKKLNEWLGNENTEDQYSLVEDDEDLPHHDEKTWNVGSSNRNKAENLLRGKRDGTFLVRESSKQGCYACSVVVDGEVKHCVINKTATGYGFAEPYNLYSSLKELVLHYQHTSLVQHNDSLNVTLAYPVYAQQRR

SMILES | IC50 [1] [nM] | IC50 [2] [nM] | IC50 [3, 4] [nM] | IC50 ([3]; THP-1 cells) [nM]
CNS(=O)(=O)c1ccc(-c2c(C(C)NC(=O)c3c(N)nn4cccnc34)cc(Cl)c3cncn23)cc1 (racemic) [Example 135, 2-Amino-N-[1-(8-chloro-5-{4-[(methylamino)sulfonyl]phenyl}imidazo[1,5-a]pyridin-6-yl)ethyl]pyrazolo[1,5-a]pyrimidine-3-carboxamide trifluoroacetate salt] | < 500 | < 100 | > 1000 | –
CCOc1c(C(C)NC(=O)c2c(N)nn3ccc(N4CCCCC4)nc23)cc(Cl)c2cn[nH]c12 (stereo not drawn) [Example 44, 2-Amino-N-(1-(4-chloro-7-ethoxy-1H-indazol-6-yl)ethyl)-5-(piperidin-1-yl)pyrazolo[1,5-a]pyrimidine-3-carboxamide trifluoroacetate salt] | < 2000 | < 500 | > 1000 | –
CCOc1c(C(C)NC(=O)c2c(N)nn3ccc(-c4cncc(CO)c4)nc23)cc(Cl)c2cn[nH]c12 (stereo not drawn) [Example 42, 2-Amino-N-(1-(4-chloro-7-ethoxy-1H-indazol-6-yl)ethyl)-5-(5-(hydroxymethyl)pyridin-3-yl)pyrazolo[1,5-a]pyrimidine-3-carboxamide] | < 100 | < 100 | < 500 | –
CC(NC(=O)c1c(N)nn2cccnc12)c1cc(Cl)c2ccnn2c1N1CCC(C#N)CC1 (stereo not drawn) [Example 56, 2-Amino-N-(1-(4-chloro-7-(4-cyanopiperidin-1-yl)pyrazolo[1,5-a]pyridin-6-yl)ethyl)pyrazolo[1,5-a]pyrimidine-3-carboxamide trifluoroacetate] | < 100 | < 100 | < 500 | –
C[C@H](NC(=O)c1c(N)nn2cccnc12)c1cc(Cl)c2ccnn2c1N1CCS(=O)(=O)CC1 [Example 57, (S)-2-Amino-N-(1-(4-chloro-7-(1,1-dioxidothiomorpholino)pyrazolo[1,5-a]pyridin-6-yl)ethyl)pyrazolo[1,5-a]pyrimidine-3-carboxamide trifluoroacetate] | < 100 | < 100 | < 500 | –
CC(NC(=O)c1c(N)nn2cccnc12)c1cc(Cl)c2cn[nH]c2c1N1CCC(O)C1 (single isomer, unassigned) [Example 90B, 2-Amino-N-{1-[4-chloro-7-(3-hydroxypyrrolidin-1-yl)-2H-indazol-6-yl]ethyl}pyrazolo[1,5-a]pyrimidine-3-carboxamide bis(trifluoroacetate)] | < 500 | < 100 | < 500 | –
CC(NC(=O)c1c(N)nn2cccnc12)c1cc(Cl)c2cncn2c1N1CCS(=O)(=O)CC1 (single isomer, unassigned) [Example 36A, 2-Amino-N-(1-[8-chloro-5-(1,1-dioxidothiomorpholin-4-yl)imidazo[1,5-a]pyridin-6-yl]ethyl)pyrazolo[1,5-a]pyrimidine-3-carboxamide] | < 100 | < 100 | < 500 | –
CCOc1c(C(C)NC(=O)c2c(N)nn3cccnc23)cc(Cl)c2c(C#N)n[nH]c12 (stereo not drawn) [Example 86, 2-Amino-N-(1-(4-chloro-3-cyano-7-ethoxy-1H-indazol-6-yl)ethyl)pyrazolo[1,5-a]pyrimidine-3-carboxamide trifluoroacetate] | < 500 | < 100 | > 1000 | –
CC(NC(=O)c1c(N)nn2cccnc12)c1cc(Cl)c2c(C#N)cnn2c1N1CCS(=O)(=O)CC1 (stereo not drawn) [Example 60, 2-Amino-N-(1-(4-chloro-3-cyano-7-(1,1-dioxidothiomorpholino)pyrazolo[1,5-a]pyridin-6-yl)ethyl)pyrazolo[1,5-a]pyrimidine-3-carboxamide trifluoroacetate] | < 500 | < 100 | < 500 | –
CCOc1c(C(C)NC(=O)c2c(N)nc3ccc(-c4cncc(CO)c4)nn23)cc(Cl)c2cn[nH]c12 (stereo not drawn) [Example 48, 2-Amino-N-(1-(4-chloro-7-ethoxy-1H-indazol-6-yl)ethyl)-6-(5-(hydroxymethyl)pyridin-3-yl)imidazo[1,2-b]pyridazine-3-carboxamide] | < 100 | < 100 | < 500 | –
CC(NC(=O)c1c(N)nn2cccnc12)c1cc(Cl)c2cncn2c1N1CCCC[C@@H]1C (stereo partly drawn) [Example 72B, 2-Amino-N-{1-[8-chloro-5-[(2S)-2-methylpiperidin-1-yl)imidazo[1,5-a]pyridin-6-yl]ethyl}pyrazolo[1,5-a]pyrimidine-3-carboxamide bistrifluoroacetate] | < 100 | < 100 | < 500 | –
CC(NC(=O)c1c(N)nn2cccnc12)c1cc(Cl)c2cncn2c1-c1cc[nH]n1 (racemic) [Example 130, 2-Amino-N-{1-[8-chloro-5-(1H-pyrazol-3-yl)imidazo[1,5-a]pyridin-6-yl]ethyl}pyrazolo[1,5-a]pyrimidine-3-carboxamide trifluoroacetate salt] | < 500 | < 100 | < 500 | –
CC(NC(=O)c1c(N)nn2cccnc12)c1cc(Cl)c2c(Cl)cnn2c1N1CCS(=O)(=O)C(C)(C)C1 (stereo not drawn) [Example 116, 2-Amino-N-{1-[3,4-dichloro-7-(2,2-dimethyl-1,1-dioxidothiomorpholin-4-yl)pyrazolo[1,5-a]pyridin-6-yl]ethyl}pyrazolo[1,5-a]pyrimidine-3-carboxamide trifluoroacetate] | < 100 | < 100 | < 500 | –
CC(NC(=O)c1c(N)nn2cccnc12)c1cc(Cl)c2cn[nH]c2c1C1=CCC(C#N)CC1 (stereo not drawn) [Example 101, 2-Amino-N-{1-[4-chloro-7-(4-cyanocyclohex-1-en-1-yl)-2H-indazol-6-yl]ethyl}pyrazolo[1,5-a]pyrimidine-3-carboxamide trifluoroacetate] | < 500 | < 100 | < 500 | –
Cc1ncc2c(Cl)cc(C(C)NC(=O)c3c(N)nn4cccnc34)c(-c3ccccc3)n12 (racemic) [Example 121, 2-Amino-N-[1-(8-chloro-3-methyl-5-phenylimidazo[1,5-a]pyridin-6-yl)ethyl]pyrazolo[1,5-a]pyrimidine-3-carboxamide trifluoroacetate salt] | < 500 | < 100 | < 500 | –
CC(NC(=O)c1c(N)nn2cccnc12)c1cc(Cl)c2cn[nH]c2c1N1CCC(O)C1 (racemic) [Example 90A, 2-Amino-N-{1-[4-chloro-7-(3-hydroxypyrrolidin-1-yl)-2H-indazol-6-yl]ethyl}pyrazolo[1,5-a]pyrimidine-3-carboxamide bis(trifluoroacetate)] | < 500 | < 100 | < 500 | –
CCOc1c(C(C)NC(=O)c2c(N)nn3cccnc23)cc(Cl)c2c(Br)nn(CCO)c12 (stereo not drawn) [Example 54, 2-Amino-N-(1-(3-bromo-4-chloro-7-ethoxy-1-(2-hydroxyethyl)-1H-indazol-6-yl)ethyl)pyrazol[1,5-a]pyrimidine-3-carboxamide trifluoroacetate] | < 100 | < 100 | – | > 1000

Results, then the molecule that gave them:

IC50 [1] [nM] | IC50 [2] [nM] | IC50 [3, 4] [nM] | IC50 ([3]; THP-1 cells) [nM] | SMILES
< 500 | < 100 | > 1000 | – | Nc1nn2cccnc2c1C(=O)NCc1cc(Cl)c2cncn2c1N1CCCC1 [Example 171, 2-Amino-N-((8-chloro-5-(pyrrolidin-1-yl)imidazo[1,5-a]pyridin-6-yl)methyl)pyrazolo[1,5-a]pyrimidine-3-carboxamide trifluoroacetate salt]
< 100 | < 100 | – | < 500 | CCC(NC(=O)c1c(N)nn2cccnc12)c1cc(Cl)c2cncn2c1N1CCS(=O)(=O)CC1 (stereo not drawn) [Example 179, 2-Amino-N-{1-[8-chloro-5-(1,1-dioxidothio-morpholin-4-yl)imidazo[1,5-a]pyridin-6-yl]propyl} pyrazolo[1,5-a] pyrimidine-3-carboxamide trifluoroacetate salt]
< 100 | < 100 | – | < 500 | CC(NC(=O)c1c(N)nn2cccnc12)c1cc(Cl)c2cncn2c1N1CCC(C#N)CC1 (stereo not drawn) [Example 153, 2-Amino-N-{1-[8-chloro-5-(4-cyanopiperidin-1-yl)imidazo[1.5-a]pyridin-6-yl]ethyl}pyrazolo[1,5-a]pyrimidine-3-carboxamide trifluoroacetate salt]
< 2000 | < 100 | > 1000 | – | CC(NC(=O)c1c(N)nn2cccnc12)c1cc(Cl)c2c(C#N)ncn2c1N1CCS(=O)(=O)CC1 (racemic) [Example 164, 2-Amino-N-{1-[8-chloro-1-cyano-5-(1,1-dioxidothiomorpholin-4-yl)imidazo[1,5-a]pyridin-6-yl]ethyl}pyrazolo[1,5-a]pyrimidine-3-carboxamide trifluoroacetate salt]
< 500 | < 500 | < 500 | – | CC(NC(=O)c1c(N)nn2cccnc12)c1cc(Cl)c2cncn2c1N1CCC(O)C1 (stereo not drawn) [Example 148, 2-Amino-N-{1-[8-chloro-5-(3-hydroxy-pyrrolidin-1-yl)imidazo[1,5-a]pyridin-6-yl]ethyl}pyrazolo [1,5-a]pyrimidine-3-carboxamide trifluoroacetate salt]
< 500 | < 100 | < 500 | – | CC(NC(=O)c1c(N)nn2cccnc12)c1cc(Cl)c2cncn2c1N1C[C@H](O)C[C@@H](O)C1 (mixture of isomers) [Example 155A, 2-Amino-N-(1-{8-chloro-5-[(3R,5R)-3,5-dihydroxypiperidin-1-yl]imidazo[1,5-a]pyridin-6-yl}ethyl)pyrazolo[1,5-a]pyrimidine-3-carboxamide trifluoroacetate salt]
< 500 | < 100 | < 1000 | – | CC(NC(=O)c1c(N)nn2cccnc12)c1cc(Cl)c2cncn2c1-c1cnccn1 (racemic) [Example 138, 2-Amino-N-[1-(8-chloro-5-pyrazin-2-ylimidazo[1,5-a]pyridin-6-yl)ethyl]pyrazolo[1,5-a]pyrimidine-3-carboxamide trifluoroacetate salt]
